Results as given in patent publication US20050112573A1, “Method of detecting toxic substance” (priority 2001, published 2005).

Tested on: yeast genes (level of expressed mRNA)
Test: DNA chip analysis of expressed mRNA of yeast genes after 2 h culture with a toxic chemical substance
Type: cell-based, Saccharomyces cerevisiae S288C
Description: Yeast (Saccharomyces cerevtisiae S288C (α SUC2mal mel gap2 CUP1)) were cultured at 25° C. on YPD medium (yeast extract 1%, polypepton 2%, glucose 2%). One of toxic chemical substances was added to the cell at logarithmic growth phase, and the cell was further cultured for two hours. Cell was cultured without any chemical substance in the same condition, and was used as control. Concentrations of the chemical substances were defined to inhibit the growth of the yeast but not lead to death.
After the completion of cultivation, the culture was centrifuged to collect the cells. To the cells, sodium acetate buffer (50 mM sodium acetate, 10 mM EDTA, 1% SDS) was added, and the mixture was shaken at 65° C. for five minutes, followed by returning to room temperature, and obtaining the supernatant, which procedure was repeated two times. To the supernatant, ½ amount of a solution of phenol/chloroform was added, and the mixture was centrifuged to give a supernatant, which was added with an equal amount of chloroform, and the mixture was centrifuged to give a supernatant. To the supernatant, an equal amount of isopropanol containing 0.3 M sodium acetate was added, and the mixture was allowed to stand at room temperature for 30 minutes, after which the mixture was centrifuged to give a sediment of the whole RNAs. Seventy % ethanol was added to the sediment, and the mixture was again centrifuged to give a sediment, which was then dried and dissolved in water. mRNA was isolated from the whole RNAs as followings. In view of the fact that a poly A chain is attached to the 3′ terminus of mRNA, a polynucleotide having a poly T structure which was immobilized on the surface of latex beads was used to trap the mRNA, and then the mRNA was washed and eluted with spine column (Oligotex-dT30<Super>mRNA Purification Kit, Takara). Reverse transcription of the mRNA was conducted with a reverse transcriptase (Super Script II Reverse Transcriptase; catalogue No. 18064-014, GibcoBRL) using fluorescence-labeled nucleotides to give cDNAs that were introduced with Cy3-dUTP or Cy5-dUTP during the reverse transcription.
The labeled cDNAs were dissolved in TE buffer (10 mM Tris-HCl/1 mM EDTA, pH8.0), and the solution was dropped on the DNA chip containing the whole genes of yeast (DNA Chip Research Inc. Japan) so that the cDNAs were hybridized on the DNA chip at 65° C. for over 12 hours. The fluoresces intensity of the DNA chip was read with a scanner, and the ratio relative to the fluorescence intensity resulting from the absence of chemical substance was estimated as the following, which is shown in Tables 1 to 9: [formula]
In the Tables, “Intensity” indicated in the rightmost column is a value of the level of expressed mRNA of each gene in control cells as divided by the average level of the expressions of the whole genes.

CN(C)C(=S)SSC(=S)N(C)C [(10), Tetramethylthiuram disulfide]
The level of expressed mRNA in the presence of chemical substance/The level of expressed mRNA in the absence of chemical substance (yeast gene YAR010C): 1.1 | The level of expressed mRNA in the presence of chemical substance/The level of expressed mRNA in the absence of chemical substance (yeast gene YBL005W-A): 1.5 | The level of expressed mRNA in the presence of chemical substance/The level of expressed mRNA in the absence of chemical substance (yeast gene YBL041W): 2.6 | The level of expressed mRNA in the presence of chemical substance/The level of expressed mRNA in the absence of chemical substance (yeast gene YBL043W): 14.7 | The level of expressed mRNA in the presence of chemical substance/The level of expressed mRNA in the absence of chemical substance (yeast gene YBL078C): 15.2 | The level of expressed mRNA in the presence of chemical substance/The level of expressed mRNA in the absence of chemical substance (yeast gene YBR214W): 3.5 | The level of expressed mRNA in the presence of chemical substance/The level of expressed mRNA in the absence of chemical substance (yeast gene YCL020W): 2.4 | The level of expressed mRNA in the presence of chemical substance/The level of expressed mRNA in the absence of chemical substance (yeast gene YCL027W): 16.3 | The level of expressed mRNA in the presence of chemical substance/The level of expressed mRNA in the absence of chemical substance (yeast gene YCR004C): 2.1 | The level of expressed mRNA in the presence of chemical substance/The level of expressed mRNA in the absence of chemical substance (yeast gene YCR071C): 1.2 | The level of expressed mRNA in the presence of chemical substance/The level of expressed mRNA in the absence of chemical substance (yeast gene YCR088W): 0.9 | The level of expressed mRNA in the presence of chemical substance/The level of expressed mRNA in the absence of chemical substance (yeast gene YDL008W): 3.0 | The level of expressed mRNA in the presence of chemical substance/The level of expressed mRNA in the absence of chemical substance (yeast gene YDL238C): 2.7 | The level of expressed mRNA in the presence of chemical substance/The level of expressed mRNA in the absence of chemical substance (yeast gene YDR055W): 2.4 | The level of expressed mRNA in the presence of chemical substance/The level of expressed mRNA in the absence of chemical substance (yeast gene YDR084C): 0.6 | The level of expressed mRNA in the presence of chemical substance/The level of expressed mRNA in the absence of chemical substance (yeast gene YDR085C): 2.3 | The level of expressed mRNA in the presence of chemical substance/The level of expressed mRNA in the absence of chemical substance (yeast gene YDR104C): 2.7 | The level of expressed mRNA in the presence of chemical substance/The level of expressed mRNA in the absence of chemical substance (yeast gene YDR115W): 1.0 | The level of expressed mRNA in the presence of chemical substance/The level of expressed mRNA in the absence of chemical substance (yeast gene YDR259C): 1.8 | The level of expressed mRNA in the presence of chemical substance/The level of expressed mRNA in the absence of chemical substance (yeast gene YDR315C): 1.6 | The level of expressed mRNA in the presence of chemical substance/The level of expressed mRNA in the absence of chemical substance (yeast gene YDR358W): 3.2 | The level of expressed mRNA in the presence of chemical substance/The level of expressed mRNA in the absence of chemical substance (yeast gene YDR388W): 0.9 | The level of expressed mRNA in the presence of chemical substance/The level of expressed mRNA in the absence of chemical substance (yeast gene YDR432W): 0.8 | The level of expressed mRNA in the presence of chemical substance/The level of expressed mRNA in the absence of chemical substance (yeast gene YDR481C): 1.6 | The level of expressed mRNA in the presence of chemical substance/The level of expressed mRNA in the absence of chemical substance (yeast gene YDR510W): 2.5 | The level of expressed mRNA in the presence of chemical substance/The level of expressed mRNA in the absence of chemical substance (yeast gene YEL042W): 0.3 | The level of expressed mRNA in the presence of chemical substance/The level of expressed mRNA in the absence of chemical substance (yeast gene YEL066W): 2.4 | The level of expressed mRNA in the presence of chemical substance/The level of expressed mRNA in the absence of chemical substance (yeast gene YER039C): 0.8 | The level of expressed mRNA in the presence of chemical substance/The level of expressed mRNA in the absence of chemical substance (yeast gene YER107C): 0.5 | The level of expressed mRNA in the presence of chemical substance/The level of expressed mRNA in the absence of chemical substance (yeast gene YER130C): 1.3 | The level of expressed mRNA in the presence of chemical substance/The level of expressed mRNA in the absence of chemical substance (yeast gene YFL028C): 1.8 | The level of expressed mRNA in the presence of chemical substance/The level of expressed mRNA in the absence of chemical substance (yeast gene YFL043C): 3.8 | The level of expressed mRNA in the presence of chemical substance/The level of expressed mRNA in the absence of chemical substance (yeast gene YGL158W): 0.9 | The level of expressed mRNA in the presence of chemical substance/The level of expressed mRNA in the absence of chemical substance (yeast gene YGL229C): 1.7 | The level of expressed mRNA in the presence of chemical substance/The level of expressed mRNA in the absence of chemical substance (yeast gene YGR136W): 2.2 | The level of expressed mRNA in the presence of chemical substance/The level of expressed mRNA in the absence of chemical substance (yeast gene YGR189C): 0.9 | The level of expressed mRNA in the presence of chemical substance/The level of expressed mRNA in the absence of chemical substance (yeast gene YGR213C): 6.9 | The level of expressed mRNA in the presence of chemical substance/The level of expressed mRNA in the absence of chemical substance (yeast gene YGR257C): 1.9 | The level of expressed mRNA in the presence of chemical substance/The level of expressed mRNA in the absence of chemical substance (yeast gene YHR004C): 0.6 | The level of expressed mRNA in the presence of chemical substance/The level of expressed mRNA in the absence of chemical substance (yeast gene YHR071W): 7.2 | The level of expressed mRNA in the presence of chemical substance/The level of expressed mRNA in the absence of chemical substance (yeast gene YHR139C): 46.6 | The level of expressed mRNA in the presence of chemical substance/The level of expressed mRNA in the absence of chemical substance (yeast gene YHR142W): 0.9 | The level of expressed mRNA in the presence of chemical substance/The level of expressed mRNA in the absence of chemical substance (yeast gene YIL123W): 0.2 | The level of expressed mRNA in the presence of chemical substance/The level of expressed mRNA in the absence of chemical substance (yeast gene YIL140W): 0.6 | The level of expressed mRNA in the presence of chemical substance/The level of expressed mRNA in the absence of chemical substance (yeast gene YJL073W): 0.7 | The level of expressed mRNA in the presence of chemical substance/The level of expressed mRNA in the absence of chemical substance (yeast gene YJL089W): 3.9 | The level of expressed mRNA in the presence of chemical substance/The level of expressed mRNA in the absence of chemical substance (yeast gene YJL116C): 2.6 | The level of expressed mRNA in the presence of chemical substance/The level of expressed mRNA in the absence of chemical substance (yeast gene YJR004C): 0.7 | The level of expressed mRNA in the presence of chemical substance/The level of expressed mRNA in the absence of chemical substance (yeast gene YJR086W): 1.1 | The level of expressed mRNA in the presence of chemical substance/The level of expressed mRNA in the absence of chemical substance (yeast gene YKL008C): 0.4
